Article PMC8253976, “Extracellular loops of the serotonin transporter act as a selectivity filter for drug binding” (The Journal of Biological Chemistry, 2021)
Like-named read-outs stand apart in the source and are kept apart here.

Tests used:
SERT [1] = target: T1, SERT (Homo sapiens, UniProt P31645); test: Electrophysiological measurement of methylphenidate binding kinetics to SERT (peak current inhibition and recovery); format: cell-based; parameters: expressed in transfected cells; conditions: for koff: peak current recovery after washout, read-out: dissociation rate koff from SERT; for association rate constant kon for binding to SERT / kon: y-intercept constrained to koff; for kon: read-out: association rate constant kon for binding to SERT
Procedure: Accordingly, we explored the hypothesis that restricting the flexibility of extracellular loops may increase the affinity of methylphenidate. […] We therefore resorted to an electrophysiological approach, which relies on the substrate-induced peak current through SERT for determining the occupancy of the binding site by methylphenidate. […] The recordings were done in the presence of high internal Na^+ (152 mM) because a high internal Na^+ concentration eliminates the steady-state current component ([5]). The isolated peak current can be quantified with high precision ([5]). The association rate of methylphenidate in the absence (Fig. 9A) and presence (Fig. 9B) of 15B8 Fab was measured by applying 5-HT (30 μM) for 3 s to obtain the reference current. Cells were subsequently exposed to methylphenidate for time intervals varying between 0.2, 0.5, 1, 2, 5, and 10 s prior to eliciting a current by fresh superfusion with 5-HT. This allowed for monitoring the onset of the methylphenidate-induced inhibition of the peak current.
Peak currents were isolated (i.e., the steady-state current was suppressed) by a high concentration of Na^+ (152 mM) in the internal solution in the patch pipet. Shown is the compilation of representative peak current traces from a single cell. […] The dashed lines were drawn by fitting the decline in peak current amplitude to an equation for a monoexponential decay to a residual activity. C and D, the experiments were carried out as outlined in panels A and B with 10, 30, 100, and 300 μM methylphenidate (MPH) in the absence (C) and presence of 300 nM 15B8 Fab 8 (D). The peak current reduction was normalized by dividing test currents by the reference current and plotted as a function of time. Data are means ± SD from three to seven independent recordings for each concentration of methylphenidate. […] Then, the peak currents were elicited by rapid application of 30 μM 5-HT with 0, 0.2, 0.5, 1, 2, 5, and 10 s delay to observe its recovery.

SERT [2] = target: T1, SERT; test: [^3H]imipramine binding to membranes harboring GFP-tagged SERT; parameters: expressed in transfected cells; membrane preparation; conditions: in the presence of 8B6 scFv, 15B8 Fab, or antiSERT-EL4 antibody; data not shown

T1 sequence (P31645 whole entry): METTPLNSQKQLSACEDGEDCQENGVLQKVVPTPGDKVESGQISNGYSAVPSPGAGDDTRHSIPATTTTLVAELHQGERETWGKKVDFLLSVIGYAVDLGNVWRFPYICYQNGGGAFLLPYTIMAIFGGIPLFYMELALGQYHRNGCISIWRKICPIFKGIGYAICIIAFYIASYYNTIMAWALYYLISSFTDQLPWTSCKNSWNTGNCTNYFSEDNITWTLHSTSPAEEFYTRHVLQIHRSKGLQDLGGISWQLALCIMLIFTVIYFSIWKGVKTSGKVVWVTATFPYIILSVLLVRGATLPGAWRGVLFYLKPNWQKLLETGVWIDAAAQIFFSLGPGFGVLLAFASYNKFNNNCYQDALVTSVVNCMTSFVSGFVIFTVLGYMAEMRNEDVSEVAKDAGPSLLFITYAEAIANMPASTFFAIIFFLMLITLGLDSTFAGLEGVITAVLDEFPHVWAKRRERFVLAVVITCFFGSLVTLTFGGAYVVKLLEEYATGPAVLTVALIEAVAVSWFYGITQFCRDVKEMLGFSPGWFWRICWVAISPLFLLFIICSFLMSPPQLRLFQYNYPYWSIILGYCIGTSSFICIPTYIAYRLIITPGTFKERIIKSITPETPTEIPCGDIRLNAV

COC(=O)C(c1ccccc1)C1CCCCN1 (stereo not drawn) [methylphenidate]
apparent on-rate kapp (SERT [1]; 10 μM methylphenidate, absence of 15B8 Fab): 0.36 ± 0.12 s⁻¹
apparent on-rate kapp (SERT [1]; 10 μM methylphenidate, presence of 300 nM 15B8 Fab): 1.20 ± 0.42 s⁻¹
apparent on-rate kapp (SERT [1]; 30 μM methylphenidate, absence of 15B8 Fab): 0.87 ± 0.20 s⁻¹
apparent on-rate kapp (SERT [1]; 30 μM methylphenidate, presence of 300 nM 15B8 Fab): 1.29 ± 0.27 s⁻¹
apparent on-rate kapp (SERT [1]; 100 μM methylphenidate, absence of 15B8 Fab): 1.53 ± 0.40 s⁻¹
apparent on-rate kapp (SERT [1]; 100 μM methylphenidate, presence of 300 nM 15B8 Fab): 2.72 ± 0.45 s⁻¹
apparent on-rate kapp (SERT [1]; 300 μM methylphenidate, absence of 15B8 Fab): 3.46 ± 0.51 s⁻¹
apparent on-rate kapp (SERT [1]; 300 μM methylphenidate, presence of 300 nM 15B8 Fab): 6.54 ± 1.04 s⁻¹
koff (SERT [1]; absence of 15B8 Fab): 0.89 ± 0.14 s⁻¹
association rate constant kon for binding to SERT (SERT [1]; absence of 15B8 Fab): 8.55 ± 1.03 × 10^3 M^−1 s^−1
kon (SERT [1]; absence of 15B8 Fab): 8950 ± 1.03e+06 M⁻¹ s⁻¹
koff (SERT [1]; presence of 15B8 Fab (300 nM)): 0.8 ± 0.12 s⁻¹
association rate constant kon for binding to SERT (SERT [1]; presence of 15B8 Fab (300 nM)): 1.92 ± 0.06 × 10^4 M^−1 s^−1
kon (SERT [1]; presence of 15B8 Fab (300 nM)): 19600 ± 6e+06 M⁻¹ s⁻¹
competition curve versus [^3H]imipramine (SERT [2]): shift to the left
